Measured values: patent publication US12246022B2, “Compositions and methods for treating, preventing or reversing age associated inflammation and disorders” (BROWN UNIVERSITY, priority 2019, dated 2025)
Values joined by “and” are separate entries in the source; they are usually repeats but may differ in a detail not shown here. Identical values can stand only once. Like-named read-outs stand apart in the source and are kept apart here.

Assays:
[1] = Table 13 Comparative Studies; cited from earlier work
mouse LINE-1 = assay: Mouse LINE-1 retrotransposition assay (dual luciferase pYX016 reporter, HeLa cells); format: cell-based
Protocol: Elvucitabine was obtained by custom synthesis. […] HeLa cervical cancer cells were cultivated at 37° C. in a humidified 5% CO2 incubator in Dulbecco's Modified Eagle's Medium (DMEM)-high glucose, with 4500 mg/L glucose, L-glutamine, sodium pyruvate and sodium bicarbonate (Sigma), supplemented with 10% of heat inactivated fetal bovine serum (Thermo Fisher). Assays were performed as described in Xie et al., 2011^151 with several modifications. The reporter assay was performed in 96 well white Optical bottom plates. 6000 HeLa cells were seeded in each well 24 hours prior transfection and compound treatment. All compounds were resuspended in DMSO. Stock solution concentrations varied from 50 mM to 1.25 mM depending of the solubility of the compound. Serial dilutions (1:3) were prepared in DMSO. Ten different concentrations of each compound were tested in triplicate. Medium containing different concentrations of the compounds were prepared by adding 2 μL of the compound dilution to 1 mL of the culture medium. The final concentration of DMSO in the medium was 0.2%. FuGENE® HD transfection reagent (Promega) was used to transfect the plasmid pYX016 into the cells. The transfection mix was prepared in OpiMEM (Thermo Fisher) using a reagent to DNA ratio of 3.5:1 according to manufacturer's instructions. Culture medium was removed from the cells and discarded. The transfection mix (5 μL) was mixed with the compound containing medium (100 μL/well) and this was added onto the cells of each well. Cells were incubated for 48H at 37° C./5% CO2. Luciferase reporter activity was quantified with the Dual-Luciferase® Reporter Assay System (Promega) according to manufacturer's instructions for multiwell plates with the following modification: Cells were lysed directly on the multiwell plate with 30 μL of the passive lysis buffer (PLB) for 20 min at room temperature, with gentle shaking to ensure complete cell lysis (instead of 20 μL of PLB for 15 min). Firefly and Renilla luciferase signals were measured using a SpectraMax i3x Multi-Mode Microplate Reader. […] Relative L1 activity was calculated as Firefly/Renilla *10,000. […] The experiment was performed twice, independently.

[2] = 300 mg per day; cited from earlier work
[3] = 3TC concentration in mouse plasma; format: in vivo; settings: both sexes, C57BL/6J, oral, mice, 2 mg/mL in drinking water cohort, tail bleed at 20 months of age
Protocol: (§1) C57BL/6J mice of both sexes were obtained from the NIA Aged Rodent Colonies^61 at 5 and 18 months of age. The 5-month old animals were sacrificed after a short (1 week) acclimatization period, a variety of tissues were harvested, snap frozen in LN2 and stored at −80° C. The 18-month old animals were housed until they reached a desired age. Mice were housed in a specific pathogen-free AAALAC-certified barrier facility. Cages, bedding (Sani-chip hardwood bedding) and food (Purina Lab Chow 5010) were sterilized by autoclaving. Food and water (also sterilized) were provided ad libitum. A light-dark cycle of 12 hours was used (7 AM On, 7 PM Off). Temperature was maintained at 70° F., and humidity at 50%. All animals were observed daily and weighed once per week. In a pilot experiment, three cohorts of 10 animals each were treated with 3TC dissolved in drinking water (1.5 mg/ml, 2.0 mg/ml, 2.5 mg/ml) continuously from 18 months until sacrifice at 24 months. The fourth (control) cohort was provided with the same water without drug. […] Once during the experiment (at 20 months of age) the animals were subjected to a single tail bleed of approximately 70 μL. The collected plasma was shipped to the University of North Carolina CFAR Clinical Pharmacology and Analytical Chemistry Core for analysis of 3TC. For the 2 mg/mL cohort the concentration of 3TC in plasma averaged 7.2 μM. […]

[4] = format: in vivo; settings: mice, 1.5, 2.0, 2.5 mg/ml in drinking water from 18 to 24 months
Protocol: as §1

[5] = tested on: L1, p16, IFN-I and SASP gene expression; assay: RT-qPCR of L1, p16, IFN-I and SASP genes in mouse tissues after drug in drinking water; format: in vivo; settings: for IFNA Individual Foldchanges / IL6 Individual Foldchanges / IRF7 Individual Foldchanges / L1 Individual Foldchanges / MMP3 Individual Foldchanges / OAS1 Individual Foldchanges / PAI Individual Foldchanges / p16 Individual Foldchanges: one animal per line, listed as 3TC; for IFNA Age-group Foldchanges / IL6 Age-group Foldchanges / IRF7 Age-group Foldchanges / L1 Age-group Foldchanges / MMP3 Age-group Foldchanges / OAS1 Age-group Foldchanges / PAI Age-group Foldchanges / p16 Age-group Foldchanges: relative to 05 mo-WT
Protocol: C57BL/6J mice of both sexes were obtained from the NIA Aged Rodent Colonies^61 at 5 and 18 months of age. The 5-month old animals were sacrificed after a short (1 week) acclimatization period, a variety of tissues were harvested, snap frozen in LN2 and stored at −80° C. The 18-month old animals were housed until they reached a desired age. Mice were housed in a specific pathogen-free AAALAC-certified barrier facility. Cages, bedding (Sani-chip hardwood bedding) and food (Purina Lab Chow 5010) were sterilized by autoclaving. Food and water (also sterilized) were provided ad libitum. A light-dark cycle of 12 hours was used (7 AM On, 7 PM Off). Temperature was maintained at 70° F., and humidity at 50%. All animals were observed daily and weighed once per week. In a pilot experiment, three cohorts of 10 animals each were treated with 3TC dissolved in drinking water (1.5 mg/ml, 2.0 mg/ml, 2.5 mg/ml) continuously from 18 months until sacrifice at 24 months. The fourth (control) cohort was provided with the same water without drug. […] Once during the experiment (at 20 months of age) the animals were subjected to a single tail bleed of approximately 70 μL. […] They were then assigned randomly to two cohorts by a technician that was blinded to the appearance or other characteristics of the animals. One cohort was treated for 2 weeks with 2 mg/mL of 3TC in drinking water, and the other (control) cohort with same water without drug, administered in the same manner. At the end of the treatment period all animals were sacrificed and harvested for tissues as described above. All the animals in both cohorts were all included in all subsequent analyses. The experiment was performed on separate occasions with male and female animals.
Reverse transcription qPCR (RT-qPCR) of RNA was performed using the SYBR Green system (Applied Biosystems). Polyadenylated RNA was used in all experiments assessing transcription of L1 elements, and total RNA was used for all other genes. Total RNA was harvested using the Trizol reagent (Invitrogen). Poly(A) RNA was isolated from total RNA using the NEBNext Poly(A) mRNA Magnetic Isolation Module (New England Biolabs). 1 μg of total RNA, or 10 ng of poly(A) RNA, were reverse-transcribed into cDNA in 50 μL reactions using the TaqMan kit (Applied Biosystems). To assess strand-specific transcription, the random primers in the RT reaction were substituted with a strand-specific primer to the target RNA. 1 μL of each RT reaction was used in subsequent qPCR reactions. […] The arithmetic mean of Gapdh and two additional controls (Hsp90 and GusB) was used for normalization of RT-qPCR experiments with murine tissues, with the exception of liver that was normalized to Hsp90 and GusB. For measuring L1 transcription, poly(A) RNA samples were exhaustively digested with RNase-free DNase (Qiagen) prior to the synthesis of cDNA6. Effectiveness of the DNase digestion was assessed using controls that omitted the RT enzyme.

[6] = pYX016, 48 H post-transfection, read-out: Mouse L1 activity inhibition IC50, Exp. 1
[7] = pYX016, 48 H post-transfection, read-out: Mouse L1 activity inhibition IC50, Exp. 2
[8] = pYX016, 48 H, n = 2, read-out: Mouse L1 activity inhibition IC50, Average

## Nc1nc(=O)n([C@@H]2CS[C@H](CO)O2)cc1F [Emtricitabine]
[1]
  huCSF/Plasma: 0.35
Mouse LINE-1; [6]
  IC50: 640 nM
Mouse LINE-1; [7]
  IC50: 451 nM
Mouse LINE-1; [8]
  IC50: 546 nM

## Nc1ccn([C@@H]2CS[C@H](CO)O2)c(=O)n1 [Lamivudine]
[2]
  3TC in plasma at human HIV therapeutic dose: 5 to 8 µM
[3]
  concentration at 2 months of continuous dosing (sampled at 20 months of age): 7.2 µM
[4]
  behavior, weight, or survival versus control cohort: No significant differences in behavior, weight, or survival
[5]; 05 mo mice + 3TC
  IFNA Individual Foldchanges: 1.821 and 2.748 and 2.909 and 0.645 and 0.465 and 0.346
  IL6 Individual Foldchanges: 1.455 and 0.924 and 5.604 and 1.622 and 1.920 and 0.751
  IRF7 Individual Foldchanges: 1.040 and 1.153 and 1.132 and 0.684 and 0.565 and 0.960
  L1 Individual Foldchanges: 1.458 and 1.464 and 0.484 and 1.829 and 2.537 and 0.747
  MMP3 Individual Foldchanges: 1.587 and 0.601 and 1.946 and 0.711 and 0.635 and 0.476
  OAS1 Individual Foldchanges: 2.867 and 1.521 and 6.031 and 1.317 and 0.037 and 1.603
  PAI Individual Foldchanges: 2.291 and 0.842 and 2.212 and 1.683 and 0.180 and 0.380
  p16 Individual Foldchanges: 2.881 and 0.457 and 0.957 and 0.270 and 0.104 and 0.541
  IFNA Age-group Foldchanges: 1.489
  IL6 Age-group Foldchanges: 2.046
  IRF7 Age-group Foldchanges: 0.922
  L1 Age-group Foldchanges: 1.420
  MMP3 Age-group Foldchanges: 0.993
  OAS1 Age-group Foldchanges: 2.229
  PAI Age-group Foldchanges: 1.265
  p16 Age-group Foldchanges: 0.868
[5]; 26 mo mice + 3TC
  IFNA Individual Foldchanges: 10.115 and 2.941 and 4.156 and 1.283 and 1.601 and 8.335 and 19.836 and 3.982 and 6.531 and 8.332 and 5.514 and 6.321
  IL6 Individual Foldchanges: 1.116 and 1.553 and 2.194 and 0.686 and 1.395 and 1.291 and 8.067 and 0.654 and 2.119 and 3.177 and 1.148 and 4.866
  IRF7 Individual Foldchanges: 0.540 and 0.506 and 0.498 and 0.424 and 0.954 and 3.302 and 0.993 and 1.155 and 0.950 and 1.866
  L1 Individual Foldchanges: 2.819 and 2.160 and 2.053 and 1.491 and 6.524 and 2.863 and 7.191 and 5.433 and 3.817 and 4.409 and 5.864 and 2.745
  MMP3 Individual Foldchanges: 1.044 and 0.972 and 1.618 and 1.650 and 1.033 and 1.166 and 4.484 and 0.374 and 1.543 and 3.656 and 1.964 and 1.637
  OAS1 Individual Foldchanges: 1.658 and 0.643 and 0.055 and 0.482 and 1.094 and 0.695 and 7.091 and 3.841 and 1.945 and 0.636 and 0.565 and 1.469
  PAI Individual Foldchanges: 1.034 and 1.056 and 2.696 and 0.493 and 1.562 and 1.675 and 2.347 and 0.529 and 0.747 and 8.508 and 6.112 and 7.313
  p16 Individual Foldchanges: 2.290 and 3.653 and 1.731 and 1.168 and 0.844 and 1.243 and 3.690 and 2.458 and 2.135 and 4.053 and 1.969 and 1.326
  IFNA Age-group Foldchanges: 6.579
  IL6 Age-group Foldchanges: 2.355
  IRF7 Age-group Foldchanges: 1.076
  L1 Age-group Foldchanges: 3.947
  MMP3 Age-group Foldchanges: 1.762
  OAS1 Age-group Foldchanges: 1.681
  PAI Age-group Foldchanges: 2.839
  p16 Age-group Foldchanges: 2.213
Mouse LINE-1; [6]
  IC50: 958 nM
Mouse LINE-1; [7]
  IC50: 780 nM
Mouse LINE-1; [8]
  IC50: 869 nM
